Laboratory results as given in ChEMBL document CHEMBL1135037 (Bioorg Med Chem Lett, 2002).

Assays:
[1] = Inhibition against PP1 at 100 uM
[2] = Inhibitory concentration against PP1 was determined
[3] = target: T1, Serine-threonine protein phosphatase 2A regulatory subunit (Gallus gallus) (UniProt Q8AWE3); assay: Inhibition against PP2A at 100 uM
T1 sequence (whole entry): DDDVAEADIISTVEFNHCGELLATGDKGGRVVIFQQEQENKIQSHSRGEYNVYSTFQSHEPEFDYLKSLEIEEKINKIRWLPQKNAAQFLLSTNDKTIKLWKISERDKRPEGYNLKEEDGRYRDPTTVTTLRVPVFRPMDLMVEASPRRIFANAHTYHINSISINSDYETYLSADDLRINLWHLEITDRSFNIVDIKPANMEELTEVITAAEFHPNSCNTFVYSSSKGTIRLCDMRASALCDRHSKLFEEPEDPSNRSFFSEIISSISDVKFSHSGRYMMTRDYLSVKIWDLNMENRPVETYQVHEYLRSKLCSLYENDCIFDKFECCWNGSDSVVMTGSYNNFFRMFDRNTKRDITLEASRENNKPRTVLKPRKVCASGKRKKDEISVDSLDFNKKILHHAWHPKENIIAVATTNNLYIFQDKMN

[4] = target: T2, Serine-threonine protein phosphatase 2A regulatory subunit (Gallus gallus, UniProt Q8AWE3); assay: Concentration required to inhibit the action of protein phosphatase 2A
T2 sequence (Q8AWE3 whole entry): T1 sequence (whole entry)

[5] = Selectivity was evaluated against Protein phosphatase 1
[6] = organism: Homo sapiens; assay: Selectivity against Protein phosphatase 2A
[7] = Selectivity was calculated against protein phosphatase 1

Structure (SMILES): O=C1OC(=O)C2C1[C@@H]1CC[C@H]2O1 (some centres not stated)
- inhibition [1]: 90%
- IC50 [2]: 2.4 µM
- inhibition [3]: 97%

Structure (SMILES): O=C1OC(=O)C2C1[C@@H]1C=C[C@H]2S1 (some centres not stated)
- inhibition [1]: 0%
- inhibition [3]: 0%

Structure (SMILES): COC[C@@H]([C@H](O)[C@H](O)C(=O)NCC[C@H](C)c1nc(/C=C/C[C@@H]2O[C@]3(C[C@@H](O)[C@@H]2C)O[C@H]([C@H](C[C@H](O)[C@H](C)[C@H](O)[C@H](C)/C=C(C)/C(C)=C/C=C/C(C)=C\C#N)OC)[C@H](OP(=O)(O)O)C3(C)C)co1)N(C)C [CALYCULIN A]
- IC50 [4]: 0.002 µM

Structure (SMILES): O=C1NC(=O)C2C1[C@@H]1C=C[C@H]2S1 (some centres not stated)
- inhibition [1]: 87%
- IC50 [2]: 12.5 µM
- Selectivity [5]: 34
- IC50 [4]: 426 µM
- inhibition [3]: 30%

Structure (SMILES): C[C@@]12C(=O)OC(=O)[C@]1(C)[C@H]1CC[C@@H]2O1 [CANTHARIDIN]
- IC50 [2]: 0.16 µM

Structure (SMILES): C[C@@](O)(/C=C/[C@H]1CC=CC(=O)O1)[C@@H](C[C@@H](O)\C=C/C=C\C=C\CO)OP(=O)(O)O [FOSTRIECIN SODIUM]
- IC50 [2]: 130 µM
- Selectivity [6]: > 40000
- IC50 [4]: 0.0034 µM

Structure (SMILES): COC(=O)C1C(C(=O)OC)[C@H]2C=C[C@@H]1S2 (some centres not stated)
- inhibition [1]: 3%
- inhibition [3]: 3%

Structure (SMILES): COC(=O)C1C(C(=O)OC)[C@H]2C=C[C@@H]1O2 (some centres not stated)
- inhibition [1]: 46%
- Selectivity [7]: > 40
- IC50 [2]: 50 µM
- IC50 [4]: > 2000 µM
- inhibition [3]: 6%
